Measurements published in patent US9079974B2, “GH-RH analogs with potent agonistic effects” (The University of Miami, priority 2011, dated 2015).
pIC50: −log10 of the molar value. Square brackets hold non-standard residues; d marks the D form. Peptide text beside a SMILES is read from it. * marks the point of attachment. Desaminotyrosyl = O=C(CCc1ccc(O)cc1)*; Agmatine = N=C(N)NCCCCN*; Nle = CCCC[C@H](N)C(=O)O; Orn = NCCC[C@H](N)C(=O)O; Abu = CC[C@H](N)C(=O)O; Aoc = NCCCCCCCC(=O)O

The molecules below were run against T1, GHRH receptor (Homo sapiens, UniProt Q02643) (assay: GHRH receptor binding, [His1,125I-Tyr10,Nle27]hGHRH(1-32)NH2 ligand competition, human pituitary membrane homogenates (Table 6)). Settings: [His1,125I-Tyr10,Nle27]hGHRH(1-32)NH2, human pituitary membranes.
T1 construct: Normal human pituitaries were purchased from the National Hormone and Peptide Program; tissue National Hormone and Peptide Program (A. F. Parlow); host or cells: normal human pituitary, membrane fraction
T1 sequence (Q02643 23-423): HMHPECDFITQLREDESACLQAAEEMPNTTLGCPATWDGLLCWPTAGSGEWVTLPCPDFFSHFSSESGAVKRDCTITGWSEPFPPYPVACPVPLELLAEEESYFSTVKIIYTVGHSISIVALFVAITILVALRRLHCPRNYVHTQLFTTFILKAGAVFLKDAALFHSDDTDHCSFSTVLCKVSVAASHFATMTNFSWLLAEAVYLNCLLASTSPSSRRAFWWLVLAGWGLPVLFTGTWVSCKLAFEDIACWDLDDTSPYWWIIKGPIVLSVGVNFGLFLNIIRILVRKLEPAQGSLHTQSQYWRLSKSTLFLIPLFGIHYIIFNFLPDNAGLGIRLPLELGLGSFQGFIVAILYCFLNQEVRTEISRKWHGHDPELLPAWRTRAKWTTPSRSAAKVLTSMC
Procedure: Receptor binding assay Ligand competition assay with ^125I-labeled [His^1, Nle^27]hGH-RH(1-32)-NH2 was used to determine the binding affinities of the novel hGH-RH agonists to membrane receptors of rat anterior pituitary cells. The methods used have been described in detail (Halmos G, et al. Receptor 3: 87-97, 1993), here by incorporated by reference. Briefly, radioidonated [His^1, Nle^27]hGH-RH(1-32)-NH2 is prepared by the chloramines-T method. […] IC50 is the dose of the tested peptides causing 50% inhibition of specific binding to receptors.
Preparation of human pituitary membrane fraction and receptor binding of GHRH agonists were performed as previously described, by using a sensitive in vitro ligand competition assay based on binding of ^125I-labeled [His^1, Nle^27]hGHRH(1-32)NH2 to human pituitary membrane homogenates. Normal human pituitaries were purchased from the National Hormone and Peptide Program (A. F. Parlow, Los Angeles, County Harbor—UCLA Medical Center, Torrance, Calif.).

`CCCC[C@H](NC(=O)[C@@H](NC(=O)[C@H](CC(=O)O)NC(=O)[C@H](CCC(N)=O)NC(=O)[C@H](CC(C)C)NC(=O)[C@H](CC(C)C)NC(=O)[C@H](CCCN)NC(=O)[C@H](CCCNC(=N)N)NC(=O)[C@H](C)NC(=O)[C@H](CO)NC(=O)[C@H](CC(C)C)NC(=O)[C@H](CCC(N)=O)NC(=O)[C@H](CC)NC(=O)[C@H](CC(C)C)NC(=O)[C@@H](NC(=O)[C@H](CCCN)NC(=O)[C@H](CCCNC(=N)N)NC(=O)[C@H](Cc1ccc(O)cc1)NC(=O)[C@H](CO)NC(=O)[C@H](CC(N)=O)NC(=O)[C@@H](NC(=O)[C@H](Cc1ccccc1)NC(=O)[C@@H](NC(=O)[C@H](C)NC(=O)[C@H](CC(=O)O)NC(=O)[C@H](C)NC(=O)CCc1ccc(O)cc1)[C@@H](C)CC)[C@@H](C)O)C(C)C)[C@@H](C)CC)C(=O)N[C@@H](CC(=O)O)C(=O)NCCCCNC(=N)N` [JI-34, reference compound] (Desaminotyrosyl-ADAIFTNSYR[Orn]VL[Abu]QLSAR[Orn]LLQDI[Nle]D-Agmatine; N-terminus and C-terminus assumed) and `CCCC[C@H](NC(=O)[C@@H](NC(=O)[C@H](CC(=O)O)NC(=O)[C@H](CCC(N)=O)NC(=O)[C@H](CC(C)C)NC(=O)[C@H](CC(C)C)NC(=O)[C@H](CCCN)NC(=O)[C@H](CCCNC(=N)N)NC(=O)[C@H](C)NC(=O)[C@H](CO)NC(=O)[C@H](CC(C)C)NC(=O)[C@H](CCC(N)=O)NC(=O)[C@H](CC)NC(=O)[C@H](CC(C)C)NC(=O)[C@@H](NC(=O)[C@H](CCCN)NC(=O)[C@H](CCCNC(=N)N)NC(=O)[C@H](Cc1ccc(O)cc1)NC(=O)[C@H](CO)NC(=O)[C@@H](NC(=O)[C@@H](NC(=O)[C@H](Cc1ccccc1)NC(=O)[C@@H](NC(=O)[C@H](C)NC(=O)[C@H](CC(=O)O)NC(=O)[C@H](C)NC(=O)CCc1ccc(O)cc1)[C@@H](C)CC)[C@@H](C)O)[C@@H](C)O)C(C)C)[C@@H](C)CC)C(=O)N[C@@H](CC(=O)O)C(=O)NCCCCNC(=N)N` [JI-36, reference compound] (Desaminotyrosyl-ADAIFTTSYR[Orn]VL[Abu]QLSAR[Orn]LLQDI[Nle]D-Agmatine; N-terminus and C-terminus assumed) are within 0.2 log units of each other in pIC50: 8.86 for the first, 8.74 for the second.

`CCCC[C@H](NC(=O)[C@@H](NC(=O)[C@H](CC(=O)O)NC(=O)[C@H](CCC(N)=O)NC(=O)[C@H](CC(C)C)NC(=O)[C@H](CC(C)C)NC(=O)[C@H](CCCN)NC(=O)[C@H](CCCNC(=N)N)NC(=O)[C@H](C)NC(=O)[C@H](CO)NC(=O)[C@H](CC(C)C)NC(=O)[C@H](CCC(N)=O)NC(=O)[C@H](CC)NC(=O)[C@H](CC(C)C)NC(=O)[C@@H](NC(=O)[C@H](CCCN)NC(=O)[C@H](CCCNC(=N)N)NC(=O)[C@H](Cc1ccc(O)cc1)NC(=O)[C@H](CO)NC(=O)[C@H](CCC(N)=O)NC(=O)[C@@H](NC(=O)[C@H](Cc1ccccc1)NC(=O)[C@@H](NC(=O)[C@H](C)NC(=O)[C@H](CC(=O)O)NC(=O)[C@@H](C)NC(=O)CCc1ccc(O)cc1)[C@@H](C)CC)[C@@H](C)O)C(C)C)[C@@H](C)CC)C(=O)N[C@@H](CC(=O)O)C(=O)N[C@@H](CCCNC(=N)N)C(=O)NCCCCCCCC(N)=O` [Peptide P-21304, [Dat^1, D-Ala^2, Gln^8, Orn^12, Abu^15, Orn^21, Nle^27, Asp^28, Amc^30]hGH-RH(1-30)NH2] (Desaminotyrosyl-[dA]DAIFTQSYR[Orn]VL[Abu]QLSAR[Orn]LLQDI[Nle]DR[Aoc]-NH2) showed a pIC50 of 10.10.
